Test results taken from ChEMBL document CHEMBL1201862, “PubChem BioAssay data set” (2004).
Activity calls are given as the source filed them.

Experiments:
[1] = luciferase reporter signal suppression in cells – H4 neuroglioma cells, luminescence, dose response (AID 1990); type: functional, cell-based
[2] = Luminescence Cell-Based Dose Response HTS to Identify Inhibitors of 5'UTR Stem-Loop Driven Prion Protein mRNA Translation in H4 Neuroglioblastoma Cells. [Related pubchem assays: 1827 (Project Summary), 1813 (Primary HTS)]; type: functional
[3] = alpha-synuclein stem-loop luciferase translation blockers – H4 neuroglioma cells, luminescence, confirmation (AID 1988); type: functional, cell-based
Large T antigen = Large T antigen (Simian virus 40, UniProt P03070); type: functional, Betapolyomavirus macacae;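 note: Confirmatory-stage PubChem screen for compounds that inhibit SV40 T antigen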
[4] = target: FAD-linked sulfhydryl oxidase ALR (Homo sapiens, UniProt P55789); test: ALR-catalysed DTT oxidation blockers – biochemical, H2O2 detection, luminescence, cherry-pick, dose response (AID 493248)
[5] = reduction of Shn3 3'UTR-driven luciferase in osteoblasts – cell-based, Clone20 osteoblasts, firefly luciferase, cherry-picked, dose response (AID 624132); type: functional;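 note: firefly luciferase luminescence from reporter carrying the Shn3 3'UTR in osteoblasts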
[6] = non-specific 3'UTR reporter inhibition in Clone20-Shn3RL – cell-based, Renilla luciferase, cherry-picked, counter-screen for Shn3 inhibitor project, dose response (AID 624133); type: functional
[7] = target: T1, Rac GTPase-activating protein 1 (Homo sapiens, UniProt Q9H0H5); test: blockers of MgcRacGAP-driven Rac1 GTP hydrolysis – biochemical, ADP Hunter fluorescence, primary and confirmatory, confirmation (AID 624330); type: functional
T1 sequence (Q9H0H5 whole entry): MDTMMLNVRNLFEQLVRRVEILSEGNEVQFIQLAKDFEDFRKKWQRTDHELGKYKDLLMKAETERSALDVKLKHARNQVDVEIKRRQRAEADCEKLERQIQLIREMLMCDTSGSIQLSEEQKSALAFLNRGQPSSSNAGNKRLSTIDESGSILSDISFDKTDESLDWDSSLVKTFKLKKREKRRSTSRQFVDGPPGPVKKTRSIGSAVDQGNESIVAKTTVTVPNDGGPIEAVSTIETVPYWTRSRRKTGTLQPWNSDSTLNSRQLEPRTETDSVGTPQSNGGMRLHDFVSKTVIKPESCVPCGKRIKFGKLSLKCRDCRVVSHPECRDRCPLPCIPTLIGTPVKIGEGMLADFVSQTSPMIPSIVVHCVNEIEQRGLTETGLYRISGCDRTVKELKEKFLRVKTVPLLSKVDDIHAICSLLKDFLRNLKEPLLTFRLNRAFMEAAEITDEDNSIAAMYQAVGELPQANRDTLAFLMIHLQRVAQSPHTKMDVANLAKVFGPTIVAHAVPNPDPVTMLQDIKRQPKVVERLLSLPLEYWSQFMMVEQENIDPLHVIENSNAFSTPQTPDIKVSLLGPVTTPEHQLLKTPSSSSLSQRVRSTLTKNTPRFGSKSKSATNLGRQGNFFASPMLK

Cytochrome P450 2C19 = Cytochrome P450 2C19 (Homo sapiens, UniProt P33261); test: Cytochrome panel assay with activity outcomes. Panel member name: p450-cyp2c19 Compounds with AC50 equal or less than 10 uM are considered active; type: functional; settings: read-out: AC50
Cytochrome P450 2D6 = Cytochrome P450 2D6 (Homo sapiens, UniProt P10635);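 note: CYP2D6 member of a cytochrome P450 panel assay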
Cytochrome P450 3A4 = Cytochrome P450 3A4 (Homo sapiens, UniProt P08684);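 note: CYP3A4 tested as one member of a cytochrome P450 panel screen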
[8] = Trypanosoma cruzi growth suppression in host cells – NIH3T3 host cells, beta-gal luminescence, confirmation (AID 2044); type: functional, cell-based;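 note: intracellular parasites grown in NIH/3T3 mouse fibroblasts as host cells; luminescent beta-galactosidase reporter signal from transgenic T. cruzi replicating inside host cells; inhibitors lower the luminescence signal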
[9] = NIH3T3 cell viability loss – ATP luminescence, mouse fibroblasts, counter-screen, dose response (AID 2010); type: functional, cell-based;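 note: cells exposed to compound for about 90 hours before reading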

Chain of Large T antigen (P03070 whole entry): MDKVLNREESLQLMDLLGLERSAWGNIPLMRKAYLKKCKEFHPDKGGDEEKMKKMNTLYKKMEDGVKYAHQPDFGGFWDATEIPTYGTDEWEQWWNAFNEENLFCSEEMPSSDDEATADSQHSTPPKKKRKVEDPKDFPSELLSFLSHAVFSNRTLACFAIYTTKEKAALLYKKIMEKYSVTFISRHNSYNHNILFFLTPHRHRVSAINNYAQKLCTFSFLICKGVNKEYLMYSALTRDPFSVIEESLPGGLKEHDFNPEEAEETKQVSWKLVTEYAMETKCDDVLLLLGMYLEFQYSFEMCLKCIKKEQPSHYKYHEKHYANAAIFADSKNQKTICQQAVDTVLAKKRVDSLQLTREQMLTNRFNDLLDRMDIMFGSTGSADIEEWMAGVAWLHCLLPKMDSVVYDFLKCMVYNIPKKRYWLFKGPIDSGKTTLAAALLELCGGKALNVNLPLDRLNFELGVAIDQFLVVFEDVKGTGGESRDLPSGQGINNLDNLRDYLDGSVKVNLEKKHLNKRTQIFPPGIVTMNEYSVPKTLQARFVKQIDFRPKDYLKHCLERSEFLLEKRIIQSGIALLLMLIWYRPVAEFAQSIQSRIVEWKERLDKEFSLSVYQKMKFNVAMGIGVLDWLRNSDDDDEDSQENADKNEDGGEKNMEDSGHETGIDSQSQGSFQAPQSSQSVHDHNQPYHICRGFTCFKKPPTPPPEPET
Chain of FAD-linked sulfhydryl oxidase ALR (P55789 whole entry): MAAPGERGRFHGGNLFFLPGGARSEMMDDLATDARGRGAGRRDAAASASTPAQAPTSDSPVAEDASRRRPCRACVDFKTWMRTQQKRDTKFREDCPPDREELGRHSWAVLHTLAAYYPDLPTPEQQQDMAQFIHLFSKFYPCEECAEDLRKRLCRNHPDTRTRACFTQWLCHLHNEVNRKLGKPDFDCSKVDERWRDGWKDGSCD
Chain of Cytochrome P450 3A4 (P08684 whole entry): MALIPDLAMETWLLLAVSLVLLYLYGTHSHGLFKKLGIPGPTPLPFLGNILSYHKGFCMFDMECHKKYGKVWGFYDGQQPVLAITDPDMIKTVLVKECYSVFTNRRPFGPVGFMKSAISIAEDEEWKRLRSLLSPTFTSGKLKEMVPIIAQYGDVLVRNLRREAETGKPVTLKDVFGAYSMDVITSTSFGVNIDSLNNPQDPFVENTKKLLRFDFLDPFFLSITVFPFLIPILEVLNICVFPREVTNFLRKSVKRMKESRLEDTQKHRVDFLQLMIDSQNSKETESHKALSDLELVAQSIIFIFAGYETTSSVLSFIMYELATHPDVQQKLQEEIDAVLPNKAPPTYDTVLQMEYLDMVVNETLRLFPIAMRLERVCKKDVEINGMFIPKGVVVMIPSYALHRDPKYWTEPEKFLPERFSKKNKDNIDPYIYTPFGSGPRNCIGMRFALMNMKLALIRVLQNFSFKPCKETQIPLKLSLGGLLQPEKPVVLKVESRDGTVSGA
Chain of Cytochrome P450 2D6 (P10635 whole entry): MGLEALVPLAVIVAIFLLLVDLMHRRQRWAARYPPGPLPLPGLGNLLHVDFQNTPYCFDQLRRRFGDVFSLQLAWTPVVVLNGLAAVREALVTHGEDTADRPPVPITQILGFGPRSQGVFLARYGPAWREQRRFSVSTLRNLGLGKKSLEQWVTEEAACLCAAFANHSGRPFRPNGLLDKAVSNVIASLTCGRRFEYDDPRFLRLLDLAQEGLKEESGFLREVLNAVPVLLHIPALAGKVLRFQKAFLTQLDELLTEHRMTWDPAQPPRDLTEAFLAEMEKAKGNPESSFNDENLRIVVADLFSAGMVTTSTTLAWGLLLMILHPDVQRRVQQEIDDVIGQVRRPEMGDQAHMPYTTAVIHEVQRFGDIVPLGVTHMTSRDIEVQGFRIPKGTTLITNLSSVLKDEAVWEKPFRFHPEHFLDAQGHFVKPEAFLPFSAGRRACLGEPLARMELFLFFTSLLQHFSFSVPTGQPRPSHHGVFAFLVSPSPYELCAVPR
Chain of Cytochrome P450 2C19 (P33261 whole entry): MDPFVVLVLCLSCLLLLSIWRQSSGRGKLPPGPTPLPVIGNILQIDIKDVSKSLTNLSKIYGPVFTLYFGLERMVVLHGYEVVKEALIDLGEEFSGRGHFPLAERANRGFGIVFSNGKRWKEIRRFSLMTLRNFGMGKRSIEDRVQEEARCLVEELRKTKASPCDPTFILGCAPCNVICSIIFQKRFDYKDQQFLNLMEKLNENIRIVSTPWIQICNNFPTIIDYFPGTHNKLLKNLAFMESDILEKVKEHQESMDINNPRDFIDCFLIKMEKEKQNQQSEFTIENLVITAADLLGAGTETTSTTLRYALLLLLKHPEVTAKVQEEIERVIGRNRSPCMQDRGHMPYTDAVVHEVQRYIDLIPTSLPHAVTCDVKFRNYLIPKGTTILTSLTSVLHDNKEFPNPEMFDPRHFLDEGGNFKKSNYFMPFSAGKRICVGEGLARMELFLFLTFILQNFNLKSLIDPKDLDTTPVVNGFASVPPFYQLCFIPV

## CCCCCn1c(SCCCC)nc2c1c(=O)[nH]c(=O)n2C
[1]
  EC50: 17.1 µM (active)
[2]
  EC50: > 120 µM (not active)
[3]
  EC50: > 60 µM (not active)

## CCOc1ccccc1NC(=O)CCn1cccc1
[1]
  EC50: > 120 µM (not active)
[2]
  EC50: > 120 µM (not active)
[3]
  EC50: > 120 µM (not active)

## COc1ccc(N2CCC(CN=C(S)Nc3c(C)cc(C)cc3C)C2)cc1 (stereo not given)
Large T antigen
  IC50: 19.1 µM (active)

## COC(=O)Cc1csc(N/C=C2/C(=O)N(c3cccc(C(F)(F)F)c3)C(=O)c3ccccc32)n1
[1]
  EC50: > 120 µM (not active)
[2]
  EC50: > 120 µM (not active)
[3]
  EC50: 11.3 µM (active)

## Sc1nccc(-c2cccs2)n1
[4]
  AC50: 0.664 µM (active)

## O=C(Nc1cc(F)ccc1F)N1CCN(c2ccnc3cc(Cl)ccc23)CC1
[5]
  AC50: 22.8 µM (active)
[6]
  AC50: 10.2 µM (active)

## CCN(CC)c1ccc(NC(=O)C2CC(=O)N(Cc3ccccc3)C2)cc1 (stereo not given)
Large T antigen
  IC50: 14.5 µM (active)

## O=C(/C=C/c1ccc(O)c(O)c1)O[C@@H]1C[C@](O)(C(=O)O)C[C@@H](O)[C@H]1O
Large T antigen
  IC50: 2.86 µM (active)

## CCN(CC)c1ccc(NC(=O)C2=CC=CN3CCS(=O)(=O)N=C23)cc1
[4]
  AC50: 0.295 µM (active)
[7]
  IC50: 67 µM (active)

## Cn1cccc1C(=O)N1CCC2(CCCN(C(c3ccccc3)c3ccccc3)C2)CC1
Cytochrome P450 2C19
  AC50: 39.8 µM (inconclusive)
Cytochrome P450 2D6
  AC50: 10 µM (inconclusive)
Cytochrome P450 3A4
  AC50: 6.31 µM (inconclusive)

## COc1cc(C(=O)OCC(=O)NC2CCCCCC2)ccc1OCC(C)C
[6]
  AC50: 35.9 µM (active)

## Cc1[nH]n(C(N)=S)c(=O)c1/N=N/c1ccc(Cl)cc1Cl
[4]
  AC50: 0.674 µM (active)

## Cc1c(Br)c(O)c(Br)c(O)c1/C=N/n1c(S)nnc1-c1ccccc1
[4]
  AC50: 4.15 µM (active)

## CN(C)/C=N/C1=NN(c2cccc(C(F)(F)F)c2)CC1
Large T antigen
  IC50: 13 µM (active)
[4]
  AC50: 1.5 µM (active)
[7]
  IC50: 38.3 µM (active)

## COc1cc(/C=N/NC(=O)c2c(-c3ccccc3)noc2C)ccc1O
Large T antigen
  IC50: 15 µM (active)
[7]
  IC50: 50.2 µM (active)

## CN1CCN(/N=C/c2ccc(N(C)c3ccccc3)cc2)CC1
[4]
  AC50: 1.9 µM (active)

## CCN(CC)c1ccc(/C=N/O)cc1
Large T antigen
  IC50: 6.52 µM (active)
[7]
  IC50: 20.2 µM (active)

## COc1ccc(C(=O)/C=C(\C)Nc2ccc(NC(C)=O)cc2)cc1
Large T antigen
  IC50: 53.3 µM (active)

## COc1cc2c(cc1OC)C(c1ccc(Br)cc1)NCC2 (stereo not given)
[1]
  EC50: > 120 µM (not active)
[2]
  EC50: > 120 µM (not active)
[3]
  EC50: > 120 µM (not active)
[8]
  EC50: > 60 µM (not active)
[9]
  EC50: > 60 µM (not active)

## CC(C)n1cc(CN2CCCC(C(=O)Nc3cccc(-c4cc5ccccc5[nH]4)c3)C2)cn1 (stereo not given)
[1]
  EC50: 14.5 µM (active)
[2]
  EC50: > 120 µM (not active)
[3]
  EC50: 30.6 µM (active)
